Data on four compounds can be found in patent US12595269B2, “Morpholine-like monoamine releasers” (Solvonis Therapeutics Ireland Holdings Limited, priority 2022, dated 2026).

The nature of data set [1]: Brain tissue binding (BTB) by equilibrium dialysis, rat brain homogenate. The note with it: male, Sprague Dawley, pH 7.4. In kind it is in vitro ADME. How it is done:
Methods and Procedure: This study was performed in agreement with the previously described procedures to assure data integrity and adherence to GLP standards. Plasma protein binding and blood tissue binding of test items (0.5 μM) was determined using biological samples from male Sprague Dawley (SD) rats and humans. […] Dexamethasone was used as a control for lung tissue binding. Various biological samples were spiked with test compounds according to the methods that follow.
Preparation of brain homogenate samples: Test items were dissolved in DMSO (or an appropriate solvent) to give a 10 mM solution. Further dilutions, to obtain […] working solutions (WS), were then prepared using 50% acetonitrile in Milli Q water. These 100×WS were used to spike the brain homogenate to obtain a final concentration of 5 μM. From this initial spiking solution, control samples (n=3) referred to as T=0, were immediately extracted by protein precipitation.
An equilibrium dialysis method was performed to determine protein binding in the various biological samples described herein. Materials were prepared and methods were in accordance with the following procedures.
Membranes were prepared for use in the equilibrium dialysis experiment, by soaking in deionized water for at least 60 minutes. After this period, 20% of pure ethanol was added, and the membranes were left in this solution for at least 20 minutes. The membranes were then rinsed in Milli-Q water prior to use. […]
Dialysis buffer was prepared by dissolving Na2HPO4 8.69 g, KH2PO4 1.90 g, and NaCl 4.11 g in 1 L of MilliQ water, and adjusting the pH to 7.4 with H3PO4. […] In order to control the integrity of the membrane after the dialysis process, the presence of protein was assessed in the buffer compartment. […]
Samples were analyzed in a LC-MS/MS system using an analytical method to monitor the compound to internal standard peak area ratios as representative of the compound concentrations. Alternatively, samples were analyzed by RapidFire. […]
On the technique in general: Equilibrium dialysis compares concentrations on both sides of a semipermeable membrane.

Data set [2] can be described thus: In vitro intrinsic clearance in human liver microsomes. The note with it: pH 7.4, read-out: Intrinsic clearance (μL/min/mg protein) human. In kind it is in vitro ADME. How it is done: Methods and Procedure: The general procedure involves incubating test compounds with liver microsomes and subsequently detecting the compounds to determine intrinsic clearance. Clearance was estimated from the rate of depletion k (min−1), the volume of the incubation V (mL), and the amount of microsomal proteins in the incubation M (mg). Intrinsic clearance is defined by the following equation: Clint k*V/M.
Values for CLint are expressed as μL/min/mg protein. Verapamil and dextromethorphan were used as positive controls for CYP3A4 and CYP2D6 isoforms, respectively, to confirm metabolic activity.
Positive control and compounds for testing were dissolved in an appropriate solvent to obtain a 10 mM stock solution, which was diluted to achieve a final working solution, as detailed in the above table. Stock solutions were usually prepared at 10 mM DMSO, whereas working solutions were made by adding 5 μL 10 mM DMSO+995 μL MeOH. However, this concentration can be varied, e.g., when the test item is not soluble in the selected solvent.
Prior to experimentation, frozen liver microsomes were thawed in a water bath at 37° C. and kept on ice until use. The microsomes were then diluted with 50 mM potassium phosphate buffer pH 7.4 to a protein concentration of 0.56 mg/mL. To prepare test and control items in final incubation conditions, 5 μL of test compound and positive control working solutions were added to 445 μL of microsomes incubation mixture at 0.56 mg/mL and 50 μL of regenerating system.
As it relates to the automated incubation procedure for microsomes incubation, the following procedure was followed: • 1. 150 μL of quenching solution (ACN containing an appropriate Internal Standard, i.e. Rolipram and Diclofenac for positive and negative ion mode, respectively) was manually dispensed or dispensed by using the Hamilton system in each well of 96 deep well 1 mL plates. • 2. 800-1000 μL-aliquots of NADPH regenerating system were pre-warmed at 37° C. for 5 minutes. • 3. 5 μL of 50 μM test items and control were added to 445 μL of the 0.56 mg/mL microsomes solution, and the incubation mixture was pre-warmed in a 96 deep well 2 mL plate (incubation plate) at 37° C. for 5 minutes. • 4. […] Metabolic stability was calculated from the ratio of peak area of the remaining test or control item with internal standard versus time. • 9. […] The integrated peak areas of the test and control items at the selected time points were divided by the respective peak areas of the IS, and the percent of parent remaining was calculated by normalizing the peak area ratio of parent to IS at 0 min. Observed rate constant (kobs) for parent degradation was calculated by determining the slope of the line of the graph of the natural log of percentage parent remaining versus time of incubation. […]
For orientation: Liver microsomes are a subcellular fraction often used to study metabolism.

On to `Clc1ccc(C23CNC(CO2)C3)cc1Cl` (stereo not shown) [522A, 1-(3,4-dichlorophenyl)-2-oxa-5-azabicyclo[2.2.1]heptane], for which, in data set [1], the fraction unbound (as a rule, free concentration divided by total concentration) at 5 h, 5 µM was 0.022. Besides, in data set [2], the microsomal CLint at 0.5 µM was determined as 10 µL/min/mg.

`Clc1ccc([C@@]23CN[C@@H](CO2)C3)cc1Cl` (single isomer, unassigned) [518A] came in with a fraction unbound at 5 h, 5 µM in data set [1] of 0.0127. Besides, the microsomal CLint at 0.5 µM in data set [2] amounted to 40 µL/min/mg. Turning to `Clc1ccc([C@]23CN[C@H](CO2)C3)cc1Cl` (single isomer, unassigned) [516A], the microsomal CLint at 0.5 µM in data set [2] amounted to 31 µL/min/mg.

In the case of `CNC(C)Cc1ccc2c(c1)OCO2` (stereo not shown) [MDMA, reference compound], the fraction unbound at 5 h, 5 µM in data set [1] was roughly 0.4. The microsomal CLint at 0.5 µM in data set [2] turned out to be 30 µL/min/mg.
